{"source": "paper PMC5374710", "about": "“Discovery of the first dual GSK3β inhibitor/Nrf2 inducer. A new multitarget therapeutic strategy for Alzheimer’s disease” (Scientific Reports, 2017)", "key": {"NOX": {"tested_on": "NOX", "assay": "NOX activity assay in LPS-stimulated glial cultures (lucigenin)", "format": "cell-based, rat", "details": "10 to 60 μM, 4 h stimulation with LPS 1 μg/mL, p < 0.01", "method": "TNFα is considered one of the most important pro-inflammatory cytokines. […] The production of TNFα induced by LPS was reduced by 33% at 10 μM and by 50% at 30 μM. […] To further confirm the anti-inflammatory potential of compound 5c we measured the expression of thre NOX2 enzyme, since this isoform has been widely described as being specific tomicroglial cells. As depicted in Fig. 6F, LPS (1 μg/mL) stimulation of primary glial cultures during 24 h increased the expression of NOX2 by 65.3% (p < 0.01) compared to basal conditions.\nFigure 6 Nitrites (A), TNFα (B), iNOS (C) and NOX activity (E) blockade (D) and NOX2 production (F) by 5c in primary glial cultures stimulated with LPS (1 μg/mL), HO-1 expression induced by this compound after 24 h. […] NOX activity was measured after 4 h co-treatment with LPS and compound 5c. […]\nCells were pre-incubated with increasing concentrations of the compound. […] Then, treatments were removed and NADPH oxidase activity was assessed by measuring O2^− production in the presence of the substrate, NADPH (100 μM) as lucigenin-enhanced chemiluminiscence (5 μM lucigenin). No enzymatic activity was detected in the absence of NADPH. Luminescence was recorded 29 times every 1.8 seconds for each well in a luminometer, and NADPH oxidase activity was expressed as relative light units (RLU)/min normalized to basal value. […]"}, "Nrf2": {"tested_on": "Nrf2", "assay": "Luciferase activity in AREc32 cells after scramble or GSK3β siRNA", "format": "cell-based, human", "details": "10 μM, 24 h", "method": "To further evaluate the potential relationship between GSK3β inhibition and the Nrf2 induction properties we used two different approaches. […] Cells were treated with compound 5m at increasing concentrations alone or in presence of Li (10 mM) during 24 h and thereafter, luciferase activity was evaluated. […] Secondly, to corroborate the independence of the Nrf2 induction properties of our derivatives from their GSK3β inhibitory properties, we used GSK3β knock down experimental conditions using siRNA. […] After knockdown of GSK3β, AREc32 cells were incubated with compound 5m (10 μM) during 24 h (Fig. 4B). Subsequently, luciferase activity and HO-1 expression were analyzed. […] Similar results were obtained when HO-1 expression was analyzed (Fig. 4D), compound 5m increased HO-1 expression 3.9 times after scramble treatment and 3.5 times after knockdown of GSK3β showing no statistical differences between both conditions. […]\nFigure 4 Nrf2 induction properties are independent of the GSK3β inhibitory activity. […] (D) HO-1 expression induced by compound 5m (10 μM) measured at the same experimental conditions used previously. Values are expressed as mean ± SEM of three independent experiments in duplicate. ^###p < 0.001; ^##p < 0.01; ^#p < 0.05 compared to the correspondent basal conditions. […]"}}}
{"smiles": "COc1cccc(C2C(C#N)=C(N)Oc3n[nH]c(C)c32)c1", "note": "(stereo not drawn) [Compound 5c, 6-Amino-4-(3-methoxyphenyl)-3-methyl-2,4-dihydropyrano[2,3-c]pyrazole-5-carbonitrile]", "values": [{"measurement": "Reduction of NOX activity", "setting": "NOX", "value": "significantly reduce"}]}
{"smiles": "Cc1[nH]nc2c1C(c1ccc(Br)cc1)C(C#N)=C(N)O2", "note": "(stereo not drawn) [Compound 5m, 6-Amino-4-(4-bromophenyl)-3-methyl-2,4-dihydropyrano[2,3-c]pyrazole-5-carbonitrile]", "values": [{"measurement": "Luciferase activity fold increase compared to basal conditions", "setting": "Nrf2; GSK3β silenced (siGSK3β)", "value": 2.8, "unit": "fold"}, {"measurement": "Luciferase activity fold increase compared to basal conditions", "setting": "Nrf2; cells previously treated with scramble control siRNA", "value": 2.2, "unit": "fold"}]}
